Source: the NIST ThermoML archive (doi:10.1021/je900596d)

Details: Liquid; for mass density: Vibrating tube method

FC(F)=C(F)C(F)(F)F [hexafluoropropene]
Details	mass density [kg/m3]	vapor or sublimation pressure [kPa]
353.13 K, 6254.1 kPa	1084.82	–
353.13 K, 6293.2 kPa	1085.83	–
353.13 K, 6333.5 kPa	1086.9	–
353.13 K, 6371.8 kPa	1087.85	–
353.13 K, 6409 kPa	1088.79	–
353.13 K, 6445.8 kPa	1089.69	–
353.13 K, 6484.6 kPa	1090.62	–
353.13 K, 6524.7 kPa	1091.6	–
353.13 K, 6563.9 kPa	1092.58	–
353.13 K, 6604.4 kPa	1093.48	–
353.13 K, 6642.7 kPa	1094.43	–
353.13 K, 6683.7 kPa	1095.45	–
353.13 K, 6726.1 kPa	1096.44	–
353.13 K, 6764 kPa	1097.33	–
353.13 K, 6802.8 kPa	1098.22	–
353.13 K, 6841.6 kPa	1099.15	–
353.13 K, 6882 kPa	1100.04	–
353.13 K, 6922.2 kPa	1101.01	–
353.13 K, 6960.8 kPa	1101.88	–
353.13 K, 7001.3 kPa	1102.71	–
353.13 K, 7038.1 kPa	1103.6	–
353.13 K, 7076.1 kPa	1104.43	–
353.13 K, 7114.4 kPa	1105.3	–
353.13 K, 7154.8 kPa	1106.21	–
353.13 K, 7191.9 kPa	1106.87	–
353.13 K, 7231.5 kPa	1107.79	–
353.13 K, 7270.9 kPa	1108.59	–
353.13 K, 7309.7 kPa	1109.52	–
353.13 K, 7347.2 kPa	1110.31	–
353.13 K, 7384.6 kPa	1111.14	–
353.13 K, 7426.6 kPa	1111.94	–
353.13 K, 7521.7 kPa	1113.95	–
353.13 K, 7570.3 kPa	1114.91	–
353.13 K, 7620.7 kPa	1116.02	–
353.13 K, 7669.4 kPa	1116.98	–
353.13 K, 7719.8 kPa	1117.99	–
353.13 K, 7771.4 kPa	1119.1	–
353.13 K, 7821.6 kPa	1120.08	–
353.13 K, 7875 kPa	1121.14	–
353.13 K, 7925.8 kPa	1122.03	–
353.13 K, 7977.1 kPa	1123.21	–
353.13 K, 8027.6 kPa	1124.05	–
353.13 K, 8077.8 kPa	1124.94	–
353.13 K, 8128 kPa	1125.99	–
353.13 K, 8179.4 kPa	1126.95	–
353.13 K, 8229.7 kPa	1127.86	–
353.13 K, 8281.6 kPa	1128.88	–
353.13 K, 8333.3 kPa	1129.8	–
353.13 K, 8384.4 kPa	1130.91	–
353.13 K, 8434.2 kPa	1131.83	–
353.13 K, 8483.8 kPa	1132.74	–
353.13 K, 8533 kPa	1133.6	–
353.13 K, 8585.1 kPa	1134.64	–
353.13 K, 8636.6 kPa	1135.48	–
353.13 K, 8688.1 kPa	1136.4	–
353.13 K, 8739.4 kPa	1137.27	–
353.13 K, 8787.9 kPa	1138.25	–
353.13 K, 8838.8 kPa	1138.97	–
353.13 K, 8890.6 kPa	1140.08	–
353.13 K, 8940.9 kPa	1140.78	–
353.13 K, 8990.5 kPa	1141.72	–
353.13 K, 9042.5 kPa	1142.55	–
353.13 K, 9093.8 kPa	1143.46	–
353.13 K, 9145.5 kPa	1144.29	–
353.13 K, 9199.3 kPa	1145.07	–
353.13 K, 9251.5 kPa	1145.95	–
353.13 K, 9300.6 kPa	1146.86	–
353.13 K, 9353.4 kPa	1147.68	–
353.13 K, 9405.2 kPa	1148.61	–
353.13 K, 9453.7 kPa	1149.26	–
353.13 K, 9503.3 kPa	1150.03	–
353.13 K, 9555.6 kPa	1150.83	–
353.13 K, 9607.5 kPa	1151.69	–
353.13 K, 9658.7 kPa	1152.54	–
353.13 K, 9709.8 kPa	1153.31	–
353.13 K, 9762.3 kPa	1154.19	–
353.13 K, 9811.9 kPa	1154.85	–
353.13 K, 9863.5 kPa	1155.62	–
353.13 K, 9915.1 kPa	1156.42	–
353.13 K, 9969.2 kPa	1157.38	–
353.23 K, Closed cell (Static) method	–	2782.3
355.18 K, 2917.9 kPa	845.6	–
355.18 K, 2920.4 kPa	846.43	–
355.18 K, 2923.2 kPa	847.74	–
355.18 K, 2925.7 kPa	848.75	–
355.18 K, 2927.7 kPa	849.49	–
355.18 K, 2929.8 kPa	850.21	–
355.18 K, 2931.8 kPa	850.86	–
355.18 K, 2933.8 kPa	851.6	–
355.18 K, 2936.9 kPa	852.8	–
355.18 K, 2939.2 kPa	853.64	–
355.18 K, 2941.8 kPa	854.46	–
355.18 K, 2944.4 kPa	855.06	–
355.18 K, 2946.6 kPa	855.85	–
355.18 K, 2948.8 kPa	856.52	–
355.18 K, 2952.8 kPa	857.85	–
355.18 K, 2960 kPa	859.85	–
355.18 K, 2967.7 kPa	861.92	–
355.18 K, 2975.4 kPa	863.9	–
355.18 K, 2989.1 kPa	868.46	–
355.18 K, 2995.9 kPa	870.43	–
355.18 K, 3004.5 kPa	872.46	–
355.18 K, 3019.2 kPa	876.04	–
355.18 K, 3027.3 kPa	878.11	–
355.18 K, 3033.9 kPa	879.53	–
355.18 K, 3039.9 kPa	880.6	–
355.18 K, 3094.7 kPa	890.53	–
355.18 K, 3105.5 kPa	892.47	–
355.18 K, 3126.6 kPa	896.05	–
355.18 K, 3136.9 kPa	897.86	–
355.18 K, 3146.9 kPa	899.37	–
355.18 K, 3157.8 kPa	901.09	–
355.18 K, 3167.8 kPa	902.86	–
355.18 K, 3178.7 kPa	904.31	–
355.18 K, 3189.5 kPa	906.01	–
355.18 K, 3200.1 kPa	907.48	–
355.18 K, 3210.7 kPa	909	–
355.18 K, 3221.2 kPa	910.46	–
355.18 K, 3231.6 kPa	911.83	–
355.18 K, 3252.1 kPa	914.62	–
355.18 K, 3263.1 kPa	916.04	–
355.18 K, 3273.1 kPa	917.41	–
355.18 K, 3283.4 kPa	918.63	–
355.18 K, 3294.3 kPa	920.14	–
355.18 K, 3304.3 kPa	921.35	–
355.18 K, 3325.4 kPa	923.75	–
355.18 K, 3347.5 kPa	926.36	–
355.18 K, 3368.1 kPa	928.74	–
355.18 K, 3388.8 kPa	930.98	–
355.18 K, 3410.2 kPa	933.28	–
355.18 K, 3453.4 kPa	937.53	–
355.18 K, 3496.3 kPa	941.66	–
355.18 K, 3516.9 kPa	943.53	–
